One may read the CC50 as the concentration at which the toxic effect on the cells reaches its halfway point. Lower therefore signals harm at low concentration. For orientation: EC50 means the concentration giving half of the maximal effect. Low values mean an effect from little substance, high ones a need for much substance. Usually logD stands for lipophilicity at a set pH, counting ionised and neutral species. Read a low logD as lower lipophilicity. A word on the half-life: it is the time in which the quantity being followed falls by half. Low readings indicate rapid decline, high ones slow decline.

Results on eight compounds are retold here after ChEMBL document CHEMBL1131960, “Simple mono-derivatisation of the aryl moiety of D4A and DDA-based phosphoramidate prodrugs significantly enhances their anti-HIV potency in cell culture” (Bioorg Med Chem Lett, 1999).

Series [1] concerns CCRF-CEM. As to the kind of experiment: Compound was evaluated for its concentration (potency) to inhibit the growth of CEM cells. Type of series: functional. The conditions noted are these: Homo sapiens.
The nature of series [2]: Compound was evaluated for its ability to inhibit the growth of HIV-2 in CEM cell culture (CC50/EC50). It is filed as functional, CCRF-CEM.
For series [3], the system named is CCRF-CEM. The series can be described thus: Compound was evaluated for its effective concentration (potency) to inhibit the growth of HIV-1 in CEM cell culture. It is filed as functional, cell-based. The conditions noted are these: Homo sapiens.
Series [4] deals with CCRF-CEM. The series can be described thus: Compound was evaluated for its effective concentration (potency) to inhibit the growth of HIV-2 in CEM cell culture. It is filed as functional, cell-based. Conditions: Homo sapiens.
A short description of series [5]: Compound was evaluated for its lipophilicity by 1-octanol/water (phosphate buffer, pH 7.0) and the partition coefficient (log P) was reported. It is filed as physicochemical.
The nature of series [6]: Compound was evaluated for its ability to inhibit the growth of HIV-1 in CEM cell culture (CC50/EC50). It is filed as functional, CCRF-CEM.
The test system of the next series is esterase. As to the kind of experiment: Compound was evaluated for esterase half-life (t 1/2) period using Pig Liver Esterase (PLE) assay. It is filed as ADME, Sus scrofa.

The compound `Nc1ncnc2c1ncn2[C@H]1CC[C@@H](CO)O1` yielded a CC50 in the series with CCRF-CEM [1] greater than 100000 nM. Also, the SI in series [2] was greater than 13; in series [6], greater than 25. In addition, the EC50 turned out to be 4000 nM in the series with CCRF-CEM [3] and 8000 nM in the series on CCRF-CEM [4]. Moreover, in series [5], the log distribution coefficient (logD) was -0.22.
`Nc1ncnc2c1ncn2[C@H]1C=C[C@@H](CO)O1`: the midpoint of cytotoxicity in the series on CCRF-CEM [1], the CC50, lay at 91000 nM. Further, the SI in series [2] and in series [6] was 4.6 each time. Further, the logD in series [5] is -0.36.
In the case of `COC(=O)C(C)NP(=O)(OCC1CCC(n2cnc3c(N)ncnc32)O1)Oc1ccccc1` (stereo unspecified), the midpoint of cytotoxicity with CCRF-CEM [1], the CC50, lay at 2570 nM. Further, the SI is 73 in series [2] and 161 in series [6]. Moreover, the half-maximal effective concentration (EC50) in the series on CCRF-CEM [3] is 16 nM; with CCRF-CEM [4], 35 nM. The logD in series [5] amounted to 0.89. The compound also gave a half-life in the series with esterase of 301 h.
`COC(=O)C(C)NP(=O)(OCC1C=CC(n2cnc3c(N)ncnc32)O1)Oc1ccc(Br)cc1` (stereo unspecified) gave a CC50 in the series on CCRF-CEM [1] of 840 nM. The SI in series [2] was found to be 311; in series [6], 263. Also, the EC50 with CCRF-CEM [3] was found to be 3.2 nM; with CCRF-CEM [4], 2.7 nM. The compound further gave a logD in series [5] of 1.72. This compound also had a half-life with esterase of 100 h.
The compound `COC(=O)C(C)NP(=O)(OCC1CCC(n2cnc3c(N)ncnc32)O1)Oc1cccc(Br)c1` (stereo unspecified) came in with a CC50 in the series on CCRF-CEM [1] of 560 nM. For the same compound, the SI in series [2] was found to be 170; in series [6], 243. Further, the EC50 stood at 2.3 nM with CCRF-CEM [3] and 3.3 nM with CCRF-CEM [4]. The logD in series [5] amounted to 1.71. The compound further showed a half-life in the series on esterase of 75 h.
In the series with CCRF-CEM [1], `COC(=O)C(C)NP(=O)(OCC1C=CC(n2cnc3c(N)ncnc32)O1)Oc1ccc(I)cc1` (stereo unspecified) came in with a cytotoxic concentration (CC50) of 860 nM. In addition, the values for the SI in series [2] and in series [6] were 506 and 374, respectively. The EC50 with CCRF-CEM [3] was 2.3 nM; in the series with CCRF-CEM [4], 1.7 nM. In series [5], this compound gave a logD of 2.11. Further, in the series with esterase, the half-life was 62 h.
As to `COC(=O)C(C)NP(=O)(OCC1CCC(n2cnc3c(N)ncnc32)O1)Oc1cccc(I)c1` (stereo unspecified), in the series with CCRF-CEM [1], it took 430 nM to reach half-maximal cytotoxicity (CC50). For the same compound, the SI in series [2] is on record as 159; in series [6], 195. The results for the EC50 in the series on CCRF-CEM [3] and with CCRF-CEM [4] were 2.2 nM and 2.7 nM, respectively. Besides, in series [5], the logD stood at 2.07. The compound also gave a half-life in the series on esterase of 62 h.
With `COC(=O)C(C)NP(=O)(OCC1C=CC(n2cnc3c(N)ncnc32)O1)Oc1ccccc1` (stereo unspecified), half-maximal cytotoxicity with CCRF-CEM [1] (CC50) was put at 3800 nM. The SI is 211 in series [2] and 691 in series [6]. The compound further yielded an EC50 in the series on CCRF-CEM [3] of 5.5 nM. This compound also yielded a log distribution coefficient (logD) in series [5] of 0.94. This compound gave a half-life with esterase of 301 h.
